In US9833497B2, “Human originated EGF domain proteins and use of the same” (CHENGDU SOURCEBIO LIMITED-LIABILITY COMPANY, priority 2013, dated 2017):

How the values were obtained:
Assay type in all cases: cell-based
[1] = tested on: Pseudomonas aeruginosa; assay: MIC against Gram-negative bacteria: Pseudomonas aeruginosa
How it was run: (§1)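 Antibacterial activity of purified human EGF domain proteins: two-fold concentration series, triplicate wells, LB broth, 5×10^5 CFU/mL bacteria, 37° C shaking incubation. The lowest concentration without growth defines the MIC.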

[2] = tested on: Enterobacter cloacae; assay: MIC against Gram-negative bacteria: Enterobacter cloacae
How it was run: as §1

[3] = tested on: Moraxella catarrhalis; assay: MIC against Gram-negative bacteria: Moraxella catarrhalis
How it was run: as §1

[4] = tested on: Proteus vulgaris; assay: MIC against Gram-negative bacteria: Proteus vulgaris
How it was run: as §1

[5] = tested on: E. coli DH5α; assay: Antibacterial activity: MIC and growth curve against E. coli DH5α in 96-well plate; details: minimal inhibitory concentration against E. coli DH5α; 96-well plate, 5×10^5 CFU/mL, 37° C., judged after 8 h
How it was run: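 MIC taken as lowest protein level with no bacterial growth, tracked by A600 every 30 min during 37 °C, 175 rpm culture. Two-fold protein series 50-12.5 μg/mL final, triplicate wells, against 5×10^5 CFU/mL of LB-washed mid-log cells.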

[6] = tested on: Citrobacter diversus; assay: MIC against Gram-negative bacteria: Citrobacter diversus
How it was run: as §1

[7] = tested on: Klebsiella pneumonia; assay: MIC against Gram-negative bacteria: Klebsiella pneumonia
How it was run: as §1

[8] = tested on: Serratia marcescens; assay: MIC against Gram-negative bacteria: Serratia marcescens
How it was run: as §1

[9] = tested on: Aeromonas hydrophila; assay: MIC against Gram-negative bacteria: Aeromonas hydrophila
How it was run: as §1

[10] = tested on: E. coli BL21; assay: MIC against Gram-negative bacteria: E. coli BL21
How it was run: as §1

[11] = tested on: Proteus mirabilis; assay: MIC against Gram-negative bacteria: Proteus mirabilis
How it was run: as §1

[12] = 96-well plate, 5×10^5 CFU/mL, 37° C., 10 h
[13] = Pseudomonas aeruginosa, 96-well plate, 5×10^5 CFU/mL, 37° C., 10 h
[14] = Enterobacter cloacae, 96-well plate, 5×10^5 CFU/mL, 37° C., 10 h
[15] = Moraxella catarrhalis, 96-well plate, 5×10^5 CFU/mL, 37° C., 10 h
[16] = Proteus vulgaris, 96-well plate, 5×10^5 CFU/mL, 37° C., 10 h
[17] = Citrobacter diversus, 96-well plate, 5×10^5 CFU/mL, 37° C., 10 h
[18] = Klebsiella pneumonia, 96-well plate, 5×10^5 CFU/mL, 37° C., 10 h
[19] = Serratia marcescens, 96-well plate, 5×10^5 CFU/mL, 37° C., 10 h
[20] = Aeromonas hydrophila, 96-well plate, 5×10^5 CFU/mL, 37° C., 10 h
[21] = E. coli BL21, 96-well plate, 5×10^5 CFU/mL, 37° C., 10 h
[22] = Proteus mirabilis, 96-well plate, 5×10^5 CFU/mL, 37° C., 10 h

With “PRT1455 (DWDECVDSAEHDCSPAAWCINLEGSYTCQCRTTRDATPSRAGRACE; listed as Homo sapiens)” the “MIC against P. aeruginosa” value ([1]; Pseudomonas aeruginosa, 5×10^5 CFU/mL, 10 h cultivation at 37° C.) was 25 µg/mL, the “MIC against E. cloacae” value ([2]; Enterobacter cloacae, 5×10^5 CFU/mL, 10 h cultivation at 37° C.) was 12.5 µg/mL and the “MIC against M. catarrhalis” value ([3]; Moraxella catarrhalis, 5×10^5 CFU/mL, 10 h cultivation at 37° C.) was 12.5 µg/mL. The “MIC against P. vulgaris” value ([4]; Proteus vulgaris, 5×10^5 CFU/mL, 10 h cultivation at 37° C.) was 12.5 µg/mL, the MIC [5] was 25 µg/mL and the “MIC against C. diversus” value ([6]; Citrobacter diversus, 5×10^5 CFU/mL, 10 h cultivation at 37° C.) was 12.5 µg/mL. The “MIC against K. pneumonia” value ([7]; Klebsiella pneumonia, 5×10^5 CFU/mL, 10 h cultivation at 37° C.) was 25 µg/mL, the “MIC against S. marcescens” value ([8]; Serratia marcescens, 5×10^5 CFU/mL, 10 h cultivation at 37° C.) was 25 µg/mL and the “MIC against A. hydrophila” value ([9]; Aeromonas hydrophila, 5×10^5 CFU/mL, 10 h cultivation at 37° C.) was 25 µg/mL. For the same substance, the “MIC against E. coli BL21” value ([10]; E. coli BL21, 5×10^5 CFU/mL, 10 h cultivation at 37° C.) was 12.5 µg/mL and the “MIC against P. mirabilis” value ([11]; Proteus mirabilis, 5×10^5 CFU/mL, 10 h cultivation at 37° C.) was 12.5 µg/mL.
In the case of “PRT636 (DINECEHPGLCGPQGECLNTEGSFHCVCQQGFSISADGRTCE; listed as Homo sapiens)”, the “MIC P. aeruginosa” value [1, 12] is reported as 50 µg/mL, the “MIC E. cloacae” value [2, 12] is reported as 12.5 µg/mL and the “MIC M. catarrhalis” value [3, 12] is reported as 25 µg/mL. For the same substance, the “MIC P. vulgaris” value [4, 12] was 25 µg/mL, the MIC [5] was 12.5 µg/mL and the “MIC C. diversus” value [6, 12] was 50 µg/mL. For the same substance, the “MIC K. pneumonia” value [7, 12] was 25 µg/mL, the “MIC S. marcescens” value [8, 12] was 50 µg/mL and the “MIC A. hydrophila” value [9, 12] was 25 µg/mL. For the same substance, the “MIC E. coli BL21” value [10, 12] was 25 µg/mL and the “MIC P. mirabilis” value [11, 12] was 12.5 µg/mL.
For “PRT939 (DMNECLSEPCKNGGTCSDYVNSYTCKCQAGFDGVHCE; listed as Homo sapiens)”, the MIC ([1]; P. aeruginosa, 10 h cultivation at 37° C.) was 12.5 µg/mL, the MIC ([2]; E. cloacae, 10 h cultivation at 37° C.) was 50 µg/mL and the MIC ([3]; M. catarrhalis, 10 h cultivation at 37° C.) was 12.5 µg/mL. The MIC ([4]; P. vulgaris, 10 h cultivation at 37° C.) was 12.5 µg/mL, the MIC [5] was 50 µg/mL and the MIC ([6]; C. diversus, 10 h cultivation at 37° C.) was 50 µg/mL. It also gave an MIC ([7]; K. pneumonia, 10 h cultivation at 37° C.) of 12.5 µg/mL, an MIC ([8]; S. marcescens, 10 h cultivation at 37° C.) of 50 µg/mL and an MIC ([9]; A. hydrophila, 10 h cultivation at 37° C.) of 12.5 µg/mL. For the same substance, the MIC ([10]; E. coli BL21, 10 h cultivation at 37° C.) was 25 µg/mL and the MIC ([11]; P. mirabilis, 10 h cultivation at 37° C.) was 50 µg/mL.
In the case of “PRT1202 (GYDFCSERHNCMENSICRNLNDRAVCSCRDGFRALREDNAYCE; listed as Homo sapiens)”, the “MIC against P. aeruginosa” value [1, 13] is reported as 25 µg/mL, the “MIC against E. cloacae” value [2, 14] is reported as 12.5 µg/mL and the “MIC against M. catarrhalis” value [3, 15] is reported as 50 µg/mL. For the same substance, the “MIC against P. vulgaris” value [4, 16] was 25 µg/mL, the MIC [5] was 50 µg/mL and the “MIC against C. diversus” value [6, 17] was 12.5 µg/mL. For the same substance, the “MIC against K. pneumonia” value [7, 18] was 50 µg/mL, the “MIC against S. marcescens” value [8, 19] was 50 µg/mL and the “MIC against A. hydrophila” value [9, 20] was 50 µg/mL. For the same substance, the “MIC against E. coli BL21” value [10, 21] was 12.5 µg/mL and the “MIC against P. mirabilis” value [11, 22] was 12.5 µg/mL.
“PRT101 (DVDECSSGQHQCDSSTVCFNTVGSYSCRCRPGWKPRHGIPNNQKDTVCE; listed as Homo sapiens)” was tested, and the “MIC (μg/mL) P. aeruginosa” value [1, 13] was 25 µg/mL, the “MIC (μg/mL) E. cloacae” value [2, 14] was 25 µg/mL and the “MIC (μg/mL) M. catarrhalis” value [3, 15] was 50 µg/mL. For the same substance, the “MIC (μg/mL) P. vulgaris” value [4, 16] was 12.5 µg/mL, the MIC [5] was 25 µg/mL and the “MIC (μg/mL) C. diversus” value [6, 17] was 50 µg/mL. For the same substance, the “MIC (μg/mL) K. pneumonia” value [7, 18] was 50 µg/mL, the “MIC (μg/mL) S. marcescens” value [8, 19] was 12.5 µg/mL and the “MIC (μg/mL) A. hydrophila” value [9, 20] was 50 µg/mL. The “MIC (μg/mL) E. coli BL21” value [10, 21] was 50 µg/mL and the “MIC (μg/mL) P. mirabilis” value [11, 22] was 12.5 µg/mL.
With “PRT884 (HSDPCENNPCLHGGTCNANGTMYGCSCDQGFAGENCE; listed as Homo sapiens)” the “MIC (μg/mL) P. aeruginosa” value ([1]; P. aeruginosa, 10 h cultivation at 37° C., 5×10^5 CFU/mL) was 12.5 µg/mL, the “MIC (μg/mL) E. cloacae” value ([2]; E. cloacae, 10 h cultivation at 37° C., 5×10^5 CFU/mL) was 12.5 µg/mL and the “MIC (μg/mL) M. catarrhalis” value ([3]; M. catarrhalis, 10 h cultivation at 37° C., 5×10^5 CFU/mL) was 12.5 µg/mL. The “MIC (μg/mL) P. vulgaris” value ([4]; P. vulgaris, 10 h cultivation at 37° C., 5×10^5 CFU/mL) was 50 µg/mL, the MIC [5] was 12.5 µg/mL and the “MIC (μg/mL) C. diversus” value ([6]; C. diversus, 10 h cultivation at 37° C., 5×10^5 CFU/mL) was 12.5 µg/mL. The “MIC (μg/mL) K. pneumonia” value ([7]; K. pneumonia, 10 h cultivation at 37° C., 5×10^5 CFU/mL) was 12.5 µg/mL, the “MIC (μg/mL) S. marcescens” value ([8]; S. marcescens, 10 h cultivation at 37° C., 5×10^5 CFU/mL) was 25 µg/mL and the “MIC (μg/mL) A. hydrophila” value ([9]; A. hydrophila, 10 h cultivation at 37° C., 5×10^5 CFU/mL) was 12.5 µg/mL. The “MIC (μg/mL) E. coli BL21” value ([10]; E. coli BL21, 10 h cultivation at 37° C., 5×10^5 CFU/mL) was 12.5 µg/mL and the “MIC (μg/mL) P. mirabilis” value ([11]; P. mirabilis, 10 h cultivation at 37° C., 5×10^5 CFU/mL) was 25 µg/mL.
